In assay [1] the test system is deoxyribonucleic acid synthesis of Ehrlich ascites cells. Put plainly: In vivo thymidine incorporation into deoxyribonucleic acid. Set-up: species or system mouse. As to the method:
CF1 male mice (~30 g) were implanted with 2×10^6 Ehrlich ascites tumor cells, intraperitoneally on Day 0. Compound I was suspended by homogenation in 0.05% polysorbate.80-water and administered intraperitoneally at 10 and 20 mg/kg for 9 days to determine its effectiveness for inhibition of tumor growth. Mice were sacrificed on Day 10, and the ascites fluid was collected from the peritoneal cavity. The volume and ascrit (packed cell volume) were determined for each animal and the percent inhibition of tumor growth was calculated. For the metabolic studies, mice were treated on Days 8 and 9 with 10 mg/kg of Compound I, intraperitoneally. The animal was sacrificed on Day 10 and the ascites fluid harvested. […]
For in vivo studies, incorporation of thymidine into deoxyribonucleic acid was determined by the method of Chae et al [Proc. Am. […] The deoxyribonucleic acid was isolated and the tritium content was determined in a toluene based scintillation fluid. The deoxyribonucleic acid concentration was determined by the diphenylamine reaction using calf thymus deoxyribonucleic acid as a standard. Uridine incorporation into ribonucleic acid was determined using 10 μCi of 5,6-^3 H-uridine (22.4 Ci/mmol). […] Leucine incorporation into protein was determined by the method of Sartorelli [Biochem. Biophys. […] Protein content was determined by the Lowry procedure using bovine serum albumin as a standard.

Assay [2] addresses T1, ribosomal ribonucleic acid polymerase (Mus musculus, UniProt O35134+P70700).
T1 construct: enzymes isolated from nuclei; endogenous in cells; host or cells: Ehrlich ascites tumor cell nuclei, ammonium sulfate fraction
Put plainly: In vitro ribosomal ribonucleic acid polymerase activity. The assay is classed as biochemical. The following applies: 0.25 to 1.0 mM. As to the method:
CF1 male mice (~30 g) were implanted with 2×10^6 Ehrlich ascites tumor cells, intraperitoneally on Day 0. Compound I was suspended by homogenation in 0.05% polysorbate.80-water and administered intraperitoneally at 10 and 20 mg/kg for 9 days to determine its effectiveness for inhibition of tumor growth. Mice were sacrificed on Day 10, and the ascites fluid was collected from the peritoneal cavity. The volume and ascrit (packed cell volume) were determined for each animal and the percent inhibition of tumor growth was calculated. For the metabolic studies, mice were treated on Days 8 and 9 with 10 mg/kg of Compound I, intraperitoneally. The animal was sacrificed on Day 10 and the ascites fluid harvested. The in vitro metabolic studies were performed at […] final concentration of Compound I.
In vitro and in vivo nuclear deoxyribonucleic acid polymerase activity was determined on isolated Ehrlich ascites cell nuclei. The incubation was that described by Sawada et al [Can. Res., 34, 3341 (1974)] except that [methyl-^3 H] deoxythymidine triphosphate (82.4 Ci/mmol) was used. The acid insoluble nucleic acid was collected on GF/F filters and counted. Nuclear ribonucleic acid polymerase activities were determined on enzymes isolated from nuclei. […] The acid insoluble ribonucleic acid was collected on nitrocellulose filters and counted.

T1 sequence (P52432 whole entry): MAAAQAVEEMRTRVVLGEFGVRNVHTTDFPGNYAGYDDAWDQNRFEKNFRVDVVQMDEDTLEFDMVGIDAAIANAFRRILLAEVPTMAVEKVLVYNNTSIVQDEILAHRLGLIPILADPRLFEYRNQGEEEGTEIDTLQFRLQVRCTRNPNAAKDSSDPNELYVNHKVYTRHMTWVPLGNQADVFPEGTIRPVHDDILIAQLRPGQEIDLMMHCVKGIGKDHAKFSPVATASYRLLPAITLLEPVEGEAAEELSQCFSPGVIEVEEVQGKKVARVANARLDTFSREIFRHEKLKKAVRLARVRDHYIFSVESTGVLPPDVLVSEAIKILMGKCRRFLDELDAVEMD
T1 sequence (Q791N7 whole entry, further chain): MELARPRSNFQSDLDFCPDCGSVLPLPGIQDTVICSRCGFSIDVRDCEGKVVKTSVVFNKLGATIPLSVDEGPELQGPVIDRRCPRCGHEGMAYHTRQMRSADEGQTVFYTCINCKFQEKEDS
T1 sequence (P97304 whole entry, further chain): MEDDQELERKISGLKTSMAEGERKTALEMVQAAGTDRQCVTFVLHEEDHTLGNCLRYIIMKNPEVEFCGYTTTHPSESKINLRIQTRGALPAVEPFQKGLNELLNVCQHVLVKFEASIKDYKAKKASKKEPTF
T1 sequence (Q78WZ7 whole entry, further chain): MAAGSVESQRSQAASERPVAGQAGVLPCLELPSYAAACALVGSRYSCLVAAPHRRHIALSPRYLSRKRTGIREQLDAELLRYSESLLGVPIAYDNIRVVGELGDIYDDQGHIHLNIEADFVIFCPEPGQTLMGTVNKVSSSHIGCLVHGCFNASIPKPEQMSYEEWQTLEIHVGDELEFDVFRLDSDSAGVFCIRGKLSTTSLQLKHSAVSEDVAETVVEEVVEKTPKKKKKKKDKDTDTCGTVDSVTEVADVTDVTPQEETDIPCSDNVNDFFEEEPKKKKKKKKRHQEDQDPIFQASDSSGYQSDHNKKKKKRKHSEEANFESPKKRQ
T1 sequence (P70700 whole entry): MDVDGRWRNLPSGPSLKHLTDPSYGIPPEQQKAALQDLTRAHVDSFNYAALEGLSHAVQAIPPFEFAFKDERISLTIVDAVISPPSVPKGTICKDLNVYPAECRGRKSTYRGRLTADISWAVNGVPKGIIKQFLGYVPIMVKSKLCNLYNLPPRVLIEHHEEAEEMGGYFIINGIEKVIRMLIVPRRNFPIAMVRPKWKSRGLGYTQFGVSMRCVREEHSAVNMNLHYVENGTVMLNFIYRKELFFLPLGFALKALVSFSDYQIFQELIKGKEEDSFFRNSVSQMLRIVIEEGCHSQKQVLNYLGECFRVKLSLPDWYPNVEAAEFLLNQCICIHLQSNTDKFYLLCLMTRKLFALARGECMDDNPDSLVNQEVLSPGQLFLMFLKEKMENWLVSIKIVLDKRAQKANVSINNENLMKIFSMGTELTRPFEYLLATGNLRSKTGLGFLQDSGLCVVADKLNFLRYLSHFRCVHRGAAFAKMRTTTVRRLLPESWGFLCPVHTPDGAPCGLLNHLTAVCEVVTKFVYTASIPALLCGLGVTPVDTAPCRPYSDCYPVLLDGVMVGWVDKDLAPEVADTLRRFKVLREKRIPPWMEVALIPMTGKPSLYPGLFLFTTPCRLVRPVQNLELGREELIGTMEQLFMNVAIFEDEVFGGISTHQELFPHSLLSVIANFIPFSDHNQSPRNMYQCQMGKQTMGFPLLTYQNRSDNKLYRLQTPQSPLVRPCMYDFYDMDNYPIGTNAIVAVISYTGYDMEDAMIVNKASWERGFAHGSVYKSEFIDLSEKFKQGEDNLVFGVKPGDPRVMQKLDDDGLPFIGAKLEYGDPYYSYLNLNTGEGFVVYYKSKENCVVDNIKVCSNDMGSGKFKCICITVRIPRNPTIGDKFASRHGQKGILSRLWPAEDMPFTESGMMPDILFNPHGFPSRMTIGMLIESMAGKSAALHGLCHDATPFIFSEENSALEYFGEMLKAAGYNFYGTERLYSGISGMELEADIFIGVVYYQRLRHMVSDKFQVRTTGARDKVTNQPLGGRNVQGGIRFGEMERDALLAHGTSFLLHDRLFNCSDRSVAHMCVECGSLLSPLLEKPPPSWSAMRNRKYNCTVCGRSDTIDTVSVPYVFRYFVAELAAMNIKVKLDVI
T1 sequence (O35134 whole entry): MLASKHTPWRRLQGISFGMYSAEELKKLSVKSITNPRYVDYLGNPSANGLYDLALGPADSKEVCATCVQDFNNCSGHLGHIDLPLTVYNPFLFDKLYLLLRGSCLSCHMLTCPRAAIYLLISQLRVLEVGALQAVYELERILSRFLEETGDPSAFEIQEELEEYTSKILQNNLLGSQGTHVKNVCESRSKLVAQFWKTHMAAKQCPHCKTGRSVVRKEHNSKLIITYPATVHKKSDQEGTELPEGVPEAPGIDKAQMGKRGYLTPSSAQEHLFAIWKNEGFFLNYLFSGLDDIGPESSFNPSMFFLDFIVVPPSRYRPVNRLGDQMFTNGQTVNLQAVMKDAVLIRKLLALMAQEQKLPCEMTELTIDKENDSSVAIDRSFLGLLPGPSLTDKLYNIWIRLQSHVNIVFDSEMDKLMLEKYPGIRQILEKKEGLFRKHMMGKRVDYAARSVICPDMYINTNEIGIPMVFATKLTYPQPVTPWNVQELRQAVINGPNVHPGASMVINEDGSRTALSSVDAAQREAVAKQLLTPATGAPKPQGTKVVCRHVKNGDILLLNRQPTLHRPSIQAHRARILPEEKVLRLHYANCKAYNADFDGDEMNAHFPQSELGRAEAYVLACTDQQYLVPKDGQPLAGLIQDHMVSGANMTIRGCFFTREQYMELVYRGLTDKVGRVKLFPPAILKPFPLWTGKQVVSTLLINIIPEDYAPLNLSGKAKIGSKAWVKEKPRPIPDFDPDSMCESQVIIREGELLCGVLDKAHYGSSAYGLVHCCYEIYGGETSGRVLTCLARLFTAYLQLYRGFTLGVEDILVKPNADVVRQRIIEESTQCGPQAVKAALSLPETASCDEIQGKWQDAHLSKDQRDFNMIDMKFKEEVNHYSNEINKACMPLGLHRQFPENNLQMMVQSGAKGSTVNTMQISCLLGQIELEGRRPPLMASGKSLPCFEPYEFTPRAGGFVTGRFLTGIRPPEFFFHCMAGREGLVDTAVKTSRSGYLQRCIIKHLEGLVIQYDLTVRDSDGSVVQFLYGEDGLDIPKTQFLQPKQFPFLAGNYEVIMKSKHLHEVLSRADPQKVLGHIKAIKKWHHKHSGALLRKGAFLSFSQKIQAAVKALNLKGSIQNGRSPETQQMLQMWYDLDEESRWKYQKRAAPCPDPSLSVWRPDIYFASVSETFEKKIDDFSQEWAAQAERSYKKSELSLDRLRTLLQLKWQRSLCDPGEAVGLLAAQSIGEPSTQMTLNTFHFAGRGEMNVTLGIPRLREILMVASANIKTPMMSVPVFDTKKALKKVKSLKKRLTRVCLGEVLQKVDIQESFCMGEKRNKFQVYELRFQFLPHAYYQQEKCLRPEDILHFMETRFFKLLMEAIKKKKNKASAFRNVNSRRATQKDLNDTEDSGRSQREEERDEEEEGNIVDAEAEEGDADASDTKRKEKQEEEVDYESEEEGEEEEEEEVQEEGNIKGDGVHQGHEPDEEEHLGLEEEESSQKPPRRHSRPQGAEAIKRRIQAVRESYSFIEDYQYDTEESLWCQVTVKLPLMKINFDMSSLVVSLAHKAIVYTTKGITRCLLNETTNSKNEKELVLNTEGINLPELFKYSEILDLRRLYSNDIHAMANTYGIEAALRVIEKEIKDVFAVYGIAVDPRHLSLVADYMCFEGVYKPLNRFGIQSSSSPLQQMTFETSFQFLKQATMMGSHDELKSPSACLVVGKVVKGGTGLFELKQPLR

With “{Cu[(CH3)3 N.BH2 CO2 ]2.(CH3)3 N.BH2 COOH} [Compound I]”, in assay [1] (10 mg/kg/day I.P. on Days 8 and 9), the “3H-Thymidine incorporation into deoxyribonucleic acid” value came out at 43 ± 5 % Control. Besides, in assay [1] (10 day Ehrlich ascites cells), the “thymidine incorporation into deoxyribonucleic acid inhibited” value is 57%. Further, in assay [2], the “ribosomal ribonucleic acid polymerase inhibition” value is recorded as “not inhibited”.
